The data set has as its system SNI mice. Briefly: EEG/EMG sleep analysis (NREMS fragmentation by brief awakenings) in spared nerve injury mice treated with analgesic drugs. The following applies: for sleep fragmentation: mice with nerve injury, efficacy at doses active in patients with neuropathic pain. The format is in vivo. From the text:
EEG/EMG implantation surgery: C57BL6/j mice were anesthetized with isoflurane gas (3% induction/2% maintenance) and placed in a stereotaxic apparatus (David Kopf Instruments, Tujunga, Calif.). […] Two flexible EMG electrodes(multistranded stainless steel wire; AS131, Cooner Wire, Chatsworth, Calif.) were inserted into the neck extensor muscles. All electrodes were previously soldered to a six-pin connector (MMX852-10-006-10-001000; Mill-Maz Mfg. Corp., Oyster Bay, N.Y.) and covered with epoxy glue to ensure insulation. The headmount was affixed to the animal's skull with dental acrylic cement, and the scalp wound was sutured closed behind the headmount. Mice were given meloxicam (5 mg/kg, i.p.) before they regained consciousness and then daily for 3 days and were housed singly after surgery.
EEG/EMG acquisition: Ten to fifteen days after EEG/EMG implantation, mice were transferred to individual sleep-recording cages (transparent cylindrical cage, 12″ diameter and 12″ height) in a sound-attenuated chamber with a 12:12 h light-dark cycle, ad libitum food and water, and connected to a tethered pre-amplifier (100× gain, 0.5 Hz high-pass filter for EEG, 10 Hz high-pass filter for EMG; Pinnacle Technology Inc., Lawrence, Kans., USA). The other end of the tether was plugged into a low-torque commutator (8204, Pinnacle Technology Inc., Lawrence, Kans., USA) for freely moving recordings. A data conditioning and acquisition system (DCAS, 8206) performed secondary amplification and filtering (low-pass filter: 100 Hz for EEG, 200 Hz for EMG). Mice habituated for 3-5 days to the recording setup before their baseline sleep-wake and sensory behaviors were measured.
Spared nerve injury (SNI): surgery was performed under 3% induction/2% maintenance with isoflurane on adult mice (8 to 12 weeks old). The tibial and common peroneal branches of the sciatic nerve were tightly ligated with a 5.0 silk suture and transected distally, while the sural nerve was left intact (Decosterd and Woolf, 2000). After injury, incision was sutured and mice were allowed to recover on heated pads before being returned to their homecage. The surgeon who performed the SNI was blinded to the genotype. This model causes permanent pain hypersensitivity. Sciatic nerve crush (SNcrush): surgery was performed under 3% induction/2% maintenance with isoflurane on adult mice (8 to 12 weeks old). The left sciatic nerve was exposed just below the sciatic notch under sterile conditions and then crushed using Dumont #5/45 forceps for 30 seconds under a dissection microscope. After the nerve injury, the incision wound was sutured and animals were allowed to recover on heated pads before being returned to their home cage. The surgeon who performed the SNcrush was blinded to the treatment. This model causes transient hypersensitivity before return to normal sensitivity. Sham control: surgery was performed under 3% induction/2% maintenance with isoflurane on adult mice (8 to 12 weeks old). The left sciatic nerve was exposed but left intact and the animals were allowed to recover on heated pads before being returned to their home cage.
EEG and EMG signals were digitized at a sampling rate of 400 Hz through Sirenia® Acquisition software (Pinnacle Technology Inc, Lawrence, Kans., USA) and converted to European Data Format (.EDF). Using SleepSign® for Animal (Kissei Comtec Co., Japan) software, EEG and EMG signals were digitally filtered (EEG, 0.5-100 Hz; EMG, 10-200 Hz) and scored semi-automatically using 10-s epochs, as wake, NREMS or REMS. This preliminary scoring was visually inspected by a trained experimenter, who was blinded to the experimental conditions, and corrected when appropriate. To evaluate sleep fragmentation, transient waking events occurring during NREMS were evaluated: these brief awakenings (BAs) were defined by a high-frequency low-amplitude EEG associated with an increase of EMG tone ranging from 2-15 s (Franken et al., 1991; Tobler et al., 1997). […]

With `NC(=O)N1c2ccccc2C=Cc2ccccc21` [carbamazepine], the sleep fragmentation entry is listed as “dose-dependently normalize sleep fragmentation”. The “average length of NREM” value (SNI mice, carbamazepine 5 mg/kg versus saline, FIGS. 8E-8G) was “restored the average length of NREM”.

Consider `NCC1(CC(=O)O)CCCCC1` [gabapentin], for which the sleep fragmentation result is “dose-dependently normalize sleep fragmentation”. The “total amount of sleep” value (SNI mice with and without GBP treatment, FIG. 8C) is on record as “not affected”. For the same compound, the “latency on sleep (time from full wakefulness to sleep)” value (SNI mice with and without GBP treatment, FIG. 8D) is on record as “slight increase”. Further, where the note is “SNI mice, FIG. 8B”, the “time after administration at which effects on NREMS length were the strongest” value is 0 to 2 h. Also, under “SNI mice, gabapentin treatment”, the sedation entry is “without causing sedation”. In addition, the “average length of NREMS” value (SNI mice, gabapentin treatment, FIG. 8A) is listed as “restored the average length of NREMS”.

The values above are taken from patent US20210386365A1, “BIOMARKERS OF NEUROPATHIC PAIN” (Children`s Medical Center Corporation, priority 2018, published 2021).
